Where two headings read alike, the source gives them in different places.

The subject of this test is HeLaS3 Zellen. Kind of test: Cytotoxicity test on cultured human tumour cells (AlamarBlue). The test is classed as cell-based. To be noted: read-out: HELA. The text has this: Die Wirkung der erfindungsgemäBen Verbindungen wurde im Cytotoxizitätstest an kultivierten humanen Tumorzellen und/oder in einer FACS-Analyse, beispielsweise an HeLaS3-Zellen, bestimmt.
Messung der Cytotoxizität an kultivierten humanen Tumorzellen
Zur Messung der Cytotoxizität an kultivierten humanen Tumorzellen wurden Zellen der zervikalen Carcinoma Tumorzell-Linie HeLaS3 (erhalten von American Type Culture Collection (ATCC)) in Ham's F12 Medium (Life Technologies) und 10% fötalem Rinderserum (Life Technologies) kultiviert und in der log-Wachstumsphase geerntet. Anschließend wurden die HeLaS3 Zellen in 96-well Platten (Costar) mit einer Dichte von 1000 Zellen pro well eingebracht und über Nacht in einem Inkubator (bei 37°C und 5 % CO2) inkubiert, wobei auf jeder Platte 6 wells nur mit Medium gefüllt wurden (3 wells zur Mediumkontrolle, 3 wells zur Inkubation mit reduzierten AlamarBlue). Die Wirksubstanzen wurden in verschiedenen Konzentrationen (gelöst in DMSO; Endkonzentration: 1%) zu den Zellen zugegeben (jeweils als Dreifachbestimmung) Nach 72 Stunden Inkubation wurden zu jeden well 20 µl AlamarBlue (AccuMed International) zugesetzt, und die Zellen für weitere 7 Stunden inkubiert. Zur Kontrolle wurde zu 3 wells je 20 µl reduziertes Alamar Blue gegeben (AlamarBlue Reagenz, das für 30 min autoklaviert wurde). Nach 7 h Inkubation wurde der Farbumsatz des AlamarBlue Reagenz in den einzelnen wells in einem Perkin Elmer Fluoreszenspektrophotometer bestimmt (Exitation 530 nm, Emission 590 nm, Slits 15, Integrate time 0.1). Die Menge an umgesetzten AlamarBlue Reagenz repräsentiert die metabolische Aktivität der Zellen. Die relative Zellaktivität wurde in Prozent der Kontrolle (HeLa S3 Zellen ohne Inhibitor) berechnet und die Wirkstoffkonzentration, die die Zellaktivität zu 50% hemmt (IC^50) abgeleitet. Die Werte wurden hierbei aus dem Mittelwert von drei Einzelbestimmungen - unter Korrektur des Leerwertes (Mediumkantrolle)- berechnet.
On the technique in general: Resazurin is reduced to fluorescent resorufin, in cell work by metabolically active cells.

Where [1] appears, read: HeLa S3, HeLa cells, unit inferred.

On to `CC[C@@H]1C(=O)N(C)c2cnc(Nc3ccc(C(=O)NC4CCN(C)CC4)cc3OC)nc2N1C1CCCC1` [compound 46], for which the IC50 (HeLa S3, 72 h) turned out to be 12 nM. In the case of `COc1cc(C(=O)NC2CCNCC2)ccc1Nc1ncc2c(n1)N(C1CCCC1)[C@H](C)C(=O)N2C` [compound 238], the IC50 under setting [1] is 15 nM.

On to `COc1cc(C(=O)NC(C)(C)CN(C)C)ccc1Nc1ncc2c(n1)N(C1CCCCC1)[C@H](C)C(=O)N2C` [compound 240], for which the IC50 under setting [1] was determined as 17 nM. Same read-out and setting: the result for `COc1cc(C(=O)NC2CCN(C)CC2)ccc1Nc1ncc2c(n1)N(c1ccccc1OC)[C@H](C)C(=O)N2C` [compound 226] reads 295 nM; that for `CC[C@@H]1C(=O)N(C)c2cnc(Nc3ccc(C(=O)NC(C)(C)CN4CCOCC4)cc3OC)nc2N1C1CCCC1` [compound 239], 51 nM. The same measure, in the same setting: the result for `COc1cccc(N2c3nc(Nc4ccc(C(=O)NC5CCN(C)CC5)cc4OC)ncc3N(C)C(=O)[C@H]2C)c1` [compound 224] reads 1060 nM; that for `COc1cc(C(=O)NC(C)(C)CN2CCCC2)ccc1Nc1ncc2c(n1)N(c1ccccc1OC)[C@H](C)C(=O)N2C` [compound 227], 853 nM. Turning to `CC[C@@H]1C(=O)N(C)c2cnc(Nc3ccc(C(=O)NC(C)(C)CN4CCN(C)CC4)cc3OC)nc2N1CCC(C)C` [compound 241], the IC50 under setting [1] worked out at 44 nM. With `COc1cccc(N2c3nc(Nc4ccc(C(=O)NC5CCN(C)CC5)cc4)ncc3N(C)C(=O)[C@H]2C)c1` [compound 225], the IC50 under setting [1] was found to be 1180 nM.

The record behind these values is EP1599478B1, “DIHYDROPTERIDINONES, METHOD FOR THE PRODUCTION AND USE THEREOF IN THE FORM OF DRUGS” (Boehringer Ingelheim Pharma GmbH & Co.KG, priority 2003, dated 2004).
